According to PubChem BioAssay AID489033 (Sanford-Burnham Center for Chemical Genomics, 2010):
pIC50: −log10 of the molar value. Calls of active or inactive are those of the source. No rule for the calls is given here.

Test system: 697B B-cell line, NF-kB luciferase reporter luminescence
Assay: inhibitors of B-cell NF-kB luciferase signal – 697B cells, luminescence, selectivity assay for T-cell antigen receptor NF-kB inhibitors, dose response (AID 489033)

Compound | pIC50 | IC50
O=C(NC(Nc1nc2ccc([N+](=O)[O-])cc2s1)(C(F)(F)F)C(F)(F)F)c1ccccc1 | 6.14 | 
Cc1ccc(-c2cc(-c3ccc(C)cc3)[n+](-c3ccccc3)c(-c3ccc(C)cc3)c2)cc1 | 6.15 | 
O=C(OCCN1C(=O)c2cccc3c(N4CCOCC4)ccc(c23)C1=O)c1ccc(Cl)cc1 |  | > 80 µM (inactive)
CCn1cc(C(=O)NC2CCCc3c2cnn3-c2cccc(C)c2C)cn1 (stereo not drawn) |  | > 80 µM (inactive)
COc1ccc(N(C(=O)c2ccccc2C)S(=O)(=O)c2cccs2)cc1 |  | > 80 µM (inactive)
CCCCCCCCCCn1ccc(=N)cc1 | 4.93 | 
CCCCCN1C=CC(=C2C(=O)c3ccccc3C2=O)C=C1 | 6.42 | 
Cc1noc(C)c1COc1ccc(C(=O)NNC(=O)c2ccccc2F)cc1 |  | > 80 µM (inactive)
C[C@@H]1O[C@@H](O[C@H]2C[C@@H](O)[C@]3(CO)[C@@H]4C(CC[C@]3(O)C2)[C@@]2(O)CC[C@H](C3COC(=O)C3)[C@@]2(C)C[C@H]4O)[C@H](O)[C@H](O)[C@H]1O (stereo partly drawn) | 4.91 | 
Nc1ncn([C@@H]2O[C@H](CO)[C@@H](O)[C@H]2O)c(=O)n1 | 4.92 | 
CCCCCCCOc1ccc(OC(=O)c2ccncc2)cc1 |  | > 80 µM (inactive)
CCOC(=O)C(C)Oc1cccc2c(=O)n(CC(=O)NCc3ccco3)ccc12 (stereo not drawn) |  | > 80 µM (inactive)
Cn1c2c(c(=O)n(C)c1=O)C(C(F)(F)F)(C(F)(F)F)N=C(c1ccc(Cl)cc1)N2 | 5.71 | 
Cc1ccc(Nc2nc(-c3c(C)nc4ccccn34)cs2)cc1 |  | > 80 µM (inactive)
CCOC(=O)COc1cccc2c(=O)n(CC(=O)NCc3ccccc3)ccc12 |  | > 80 µM (inactive)
COc1cc(-c2noc(C)c2-c2ccc(N(C)C)nc2)cc(OC)c1OC |  | > 80 µM (inactive)
Cc1c(C(=O)N/N=C/c2c(O)ccc3ccccc23)nnn1-c1nonc1N |  | 34.7 µM (inactive)
Nc1nc(-c2ccccc2)cc(N2CCCCC2)n1 |  | > 80 µM (inactive)
COc1ccc(CCNc2cc(N3CCN(C(=O)c4ccccc4F)CC3)ccc2[N+](=O)[O-])cc1OC |  | > 80 µM (inactive)
O=C1C=CCC(/C=C/c2ccccc2)O1 (stereo not drawn) | 5.66 | 
COc1cccc(-c2cc(=O)c3cc(NC(=O)c4ccccc4)ccc3[nH]2)c1 |  | > 80 µM (inactive)
CCOC(=O)c1ccccc1NC(=O)Cn1c(-c2nonc2N)nc2ccccc21 |  | > 80 µM (inactive)
O=[N+]([O-])c1nn(-c2ccc3c(c2)OCCO3)n(O)c1=Nc1ccccc1 | > 6.80 | 
COc1ccc(-c2c(C#N)c(N)nc3c2CCc2ccccc2-3)cc1OC |  | 54.4 µM (inactive)
Cc1ccc(C(=O)O/N=C(\N)c2ccccn2)c(C)c1 | 6.07 | 

Compound | pIC50 | IC50
Cc1ccc(S(=O)(=O)Nc2cccc(-c3ccc4nncn4n3)c2)cc1 |  | > 80 µM (inactive)
CCOC(=O)c1[nH]c(C)c(C(=O)Nc2cc(OC)ccc2OC)c1C |  | > 80 µM (inactive)
Cc1cc(/C=C2\Sc3ccccc3N2C)cc(C)[n+]1CC1CCCO1 (stereo not drawn) |  | > 80 µM (inactive)
COc1ccc(NS(=O)(=O)c2ccc(-c3cnc(C4CC4)o3)cc2)cc1OC |  | > 80 µM (inactive)
CCOc1cc(C(=O)N/N=C/C(Br)=C/c2ccccc2)cc(OCC)c1OCC |  | 35.6 µM (inactive)
COc1ccccc1N1CCN(C(=O)C2c3ccccc3Oc3ccccc32)CC1 |  | > 80 µM (inactive)
O=C(Nc1nc(-c2ccccc2)cs1)c1ccc(N2CCOCC2)c([N+](=O)[O-])c1 | 5.18 | 
Cc1ccc(COC(=O)c2cc([N+](=O)[O-])ccc2N2CCOCC2)cc1 |  | > 80 µM (inactive)
CCCCCCCCCCCCCCCC[n+]1ccc(/C=N/O)cc1 | 4.89 | 
CCOc1ccc(S(=O)(=O)N2c3ccccc3CC2C)cc1 (stereo not drawn) |  | > 80 µM (inactive)
Cc1ccc(C(=O)Nc2cccc(C(=O)O)c2)cc1 | 5.77 | 
Cc1c(C(=O)N2CCOCC2)[nH]c2c1C(=O)CC(c1ccccc1Cl)C2 (stereo not drawn) |  | > 80 µM (inactive)
CN1/C(=C\C(=O)C[n+]2ccc3ccccc3c2)C(C)(C)c2ccccc21 |  | > 80 µM (inactive)
O=C(COc1ccc(C(=O)c2ccccc2)cc1)NCc1ccc(F)cc1 |  | > 80 µM (inactive)
CC(C)(C)C(=O)Nc1ccc(NC(=O)c2ccco2)nc1 | 5.83 | 
CC[C@@]1(O)C(=O)OCc2c1cc1n(c2=O)Cc2cc3c(N)cccc3nc2-1 | 6.21 | 
CC(C)c1oc(=O)cc2c1[C@@H](O)[C@H]1OC(=O)[C@@]3(C)C[C@@H](O)[C@@H](O)[C@@]2(C)C13 (stereo partly drawn) | 5.14 | 
Cc1cc(C)nc(SCC(=O)Nc2ccnc3ccccc23)n1 |  | > 80 µM (inactive)
Cc1ccc2cccc(NS(=O)(=O)c3ccccc3)c2n1 | 6.03 | 
COc1ccc(S(=O)(=O)/N=C2\C=C(Nc3ccc(O)cc3)C(=O)c3ccccc32)cc1 | 5.66 | 
COc1ccc(C2=NOC(C(=O)NCc3ccc(F)cc3)C2)cc1OC (stereo not drawn) |  | > 80 µM (inactive)
Cc1ccc(O)c(NC(=O)c2cc(-c3ccco3)on2)c1 |  | > 80 µM (inactive)
COc1cc(C(=O)OCCc2cc3ccccc3c(=O)o2)cc(OC)c1OC |  | > 80 µM (inactive)
CC(=O)Nc1ccc(S(=O)(=O)N2c3ccc(F)cc3CCC2C)cc1 (stereo not drawn) |  | > 80 µM (inactive)
Cc1cc(NC(=O)COC(=O)c2ccc(S(=O)(=O)N3CCCc4ccccc43)cc2)no1 |  | > 80 µM (inactive)

Compound | pIC50 | IC50
CN(C)S(=O)(=O)c1ccc(Nc2nc(C3CC3)nc3c2nnn3Cc2ccccc2Cl)cc1 |  | > 80 µM (inactive)
CC(Nc1ncnc2ccccc12)c1ccccc1 (stereo not drawn) |  | > 80 µM (inactive)
CC1(C)Cc2nc3sc4c(=O)n(CC(=O)NCc5ccccc5)cnc4c3cc2CO1 |  | > 80 µM (inactive)
N=c1ccn(CC(=O)c2ccc(-c3ccccc3)cc2)cc1 | 4.72 | 
CCn1c(C)cc(C(=O)CN2C(=O)c3ccccc3S2(=O)=O)c1C | 6.13 | 
CCCCN1/C(=C/c2ccc3ccccc3[n+]2CC)Sc2ccccc21 | 5.09 | 
O=C(Nc1ccc(N2CCOCC2)cc1)c1ccc(Cl)c(S(=O)(=O)N2CCCCC2)c1 |  | > 80 µM (inactive)
CC(C)(C)OC(=O)NCCCCCc1cn(CC(=O)NCCCCCCCCCCC(=O)N2CCN(C(=O)OC(C)(C)C)CC2)nn1 |  | > 80 µM (inactive)
CCCC(=O)NC(c1ccc(C(C)C)cc1)c1ccc2cccnc2c1O (stereo not drawn) |  | > 80 µM (inactive)
COc1ccc(NC(=O)C(=O)NCC2CCCN2S(=O)(=O)c2cccs2)cc1 (stereo not drawn) |  | > 80 µM (inactive)
COc1ccc(C(=O)N(C)Cc2cnn(Cc3ccccc3)c2)cc1S(=O)(=O)N1CCOCC1 |  | > 80 µM (inactive)
COc1ccc2nc(C)cc(N/N=C/c3ccc(F)cc3)c2c1 | 5.68 | 
O=S(=O)(C/C(=C/CO)S(=O)(=O)c1ccccc1)c1ccccc1 | 6.55 | 
CC1CC(C)CN(S(=O)(=O)c2ccc(NC(=O)c3ccc(=O)[nH]c3)cc2)C1 (stereo not drawn) |  | > 80 µM (inactive)
O=C(CNC(=O)c1ccco1)N=Nc1c(O)n(CCc2ccccc2)c2ccccc12 |  | > 80 µM (inactive)
CCOC(=O)c1[nH]c2c(c1C)C(=O)CC(c1ccc(F)cc1)C2 (stereo not drawn) |  | > 80 µM (inactive)
COc1ccc(/C=N/NC(=O)COc2ccccc2-c2ccccc2)cc1 |  | 76.2 µM (inactive)
COc1ccc(C)cc1NS(=O)(=O)c1ccc(-c2cnc(C3CC3)o2)cc1 |  | > 80 µM (inactive)
CC(C)(C)c1ccc(C(=O)O/N=C(\N)c2ccccn2)cc1 | 6.06 | 
CN=c1scc(-c2cccs2)n1/N=C/c1ccccc1O | 5.88 | 
Cc1cc(NC(=O)CSc2nc3c(sc4ccccc43)c(=O)n2CCCN2CCOCC2)n[nH]1 |  | > 80 µM (inactive)
O=C(Nc1ccc(S(=O)(=O)N2CCN(Cc3ccccc3)CC2)cc1)c1cnccn1 |  | > 80 µM (inactive)
O=C1CC(c2cc(Br)ccc2F)c2cc3c(cc2N1)CCC3 (stereo not drawn) |  | > 80 µM (inactive)
COc1cc(C(=O)N2CCN(c3cccc(C)c3C)CC2)cc(OC)c1OC |  | > 80 µM (inactive)
Cc1ncoc1C(=O)NC1CCCc2c1cnn2-c1ccc(C(C)(C)C)cc1 (stereo not drawn) |  | 69.7 µM (inactive)

Compound | pIC50 | IC50
CC(C)(C)c1cc(C=C(C#N)C#N)cc(C(C)(C)C)c1O |  | > 80 µM (inactive)
O=C(Nc1ccncc1)C1CCCN(S(=O)(=O)c2cccc3cccnc23)C1 (stereo not drawn) |  | > 80 µM (inactive)
O=C1CC(c2cc(F)ccc2F)c2cc3c(cc2N1)CCC3 (stereo not drawn) |  | > 80 µM (inactive)
COc1ccc(CC(=O)Nc2cccc(-c3nnc(-c4cccc(C)c4)o3)c2)cc1OC | 5.08 | 
CCOc1ccc(N(C)S(=O)(=O)c2ccc(-c3cc(C)no3)s2)cc1 |  | > 80 µM (inactive)
CSC1=NC(C(Cl)(Cl)Cl)N=C(c2ccc(C)cc2)N1 (stereo not drawn) |  | > 80 µM (inactive)
Cc1noc(C)c1COc1ccc(CC(=O)NCc2ccccc2)cc1 |  | > 80 µM (inactive)
COc1ccccc1NC(=O)c1cnc(Nc2ccccc2OC)c2ccccc12 |  | > 80 µM (inactive)
CCCCC(=O)NC(c1ccc(N(CC)CC)cc1)c1ccc2cccnc2c1O (stereo not drawn) |  | > 80 µM (inactive)
COc1cc(-c2noc(C)c2/C=C/c2cccc([N+](=O)[O-])c2)cc(OC)c1OC |  | > 80 µM (inactive)
COC(=O)c1c(NC(=O)c2ccc([N+](=O)[O-])o2)sc2c1CCN(C(C)C)C2 | 4.82 | 
CC(=O)Nc1ccc(S(=O)(=O)N2c3ccccc3C(C)=CC2(C)C)cc1 |  | > 80 µM (inactive)
COc1cccc(/C=N/NC(=O)c2[nH]nc3c2CCc2ccccc2-3)c1O |  | 61.7 µM (inactive)
CCOC(=O)Nc1nc(-c2ccccc2)c(C(=O)c2ccccc2)s1 |  | > 80 µM (inactive)
CCn1c2ccccc2c2cc(NC(=O)c3cc(OC)c(OC)c(OC)c3)ccc21 | 4.73 | 
COc1ccc(NC(=O)/C(Cl)=C(/Cl)S(=O)Cc2ccc(C)cc2)cn1 (stereo not drawn) | > 6.80 | 
c1cc2c(cc1C1=NNC(=NC3CC3)SC1)OCCO2 | 6.52 | 
CCOC(=O)C(C)Oc1cccc2c(=O)n(CC(=O)NCc3ccc4c(c3)OCO4)ccc12 (stereo not drawn) |  | > 80 µM (inactive)
Cc1cc(-c2ccc(C(C)C)c(S(=O)(=O)N3CCN(c4ccccc4)CC3)c2)on1 |  | > 80 µM (inactive)
CCOc1ccccc1C1CC(=O)Nc2cc(C)c(C)cc21 (stereo not drawn) |  | > 80 µM (inactive)
CCCC(=O)Nc1nc2ccc(NC(=O)c3c(F)c(F)c(OC)c(F)c3F)cc2s1 |  | > 80 µM (inactive)
CCCCc1ccc(NC(=O)C(=O)NCCN2CCN(Cc3ccc([N+](=O)[O-])cc3)CC2)cc1 |  | > 80 µM (inactive)
COc1ccc([C@H]2CC(=O)C=C(c3c(OC)cccc3OC)C2)cc1 |  | > 80 µM (inactive)
